These results are taken from patent publication US7807676B2, “Diketo-Piperazine and Piperidine derivatives as antiviral agents” (priority 2006, dated 2010).

Bounds are passed on as bounds.

The test system of the assay is HIV-1 single-round infectious reporter virus. The experiment in a line: Single-round infectious HIV-1 luciferase reporter virus infection of HeLa CD4 cells (antiviral EC50). It counts as cell-based. The settings on record: Human immunodeficiency virus 1, HeLa, read-out: EC50 Group from Table 3. As to the method: • Virus production—Human embryonic Kidney cell line, 293T, was propagated in Dulbecco's Modified Eagle Medium (Invitrogen, Carlsbad, Calif.) containing 10% fetal Bovine serum (FBS, Sigma, St. Louis, Mo.). • Virus infection—Human epithelial cell line, HeLa, expressing the HIV-1 receptor CD4 was propagated in Dulbecco's Modified Eagle Medium (Invitrogen, Carlsbad, Calif.) containing 10% fetal Bovine serum (FBS, Sigma, St. Louis, Mo.) and supplemented with 0.2 mg/mL Geneticin (Invitrogen, Carlsbad, Calif.). Virus-Single-round infectious reporter virus was produced by co-transfecting human embryonic Kidney 293 cells with an HIV-1 envelope DNA expression vector and a proviral cDNA containing an envelope deletion mutation and the luciferase reporter gene inserted in place of HIV-1 nef sequences (Chen et al, Ref. 41). Transfections were performed using lipofectAMINE PLUS reagent as described by the manufacturer (Invitrogen, Carlsbad, Calif.). Experiment • 1. HeLa CD4 cells were plated in 96 well plates at a cell density of 1×10^4 cells per well in 100 μl Dulbecco's Modified Eagle Medium containing 10% fetal Bovine serum and incubated overnight. • 2. Compound was added in a 2 μl dimethylsulfoxide solution, so that the final assay concentration would be ≦10 μM. • 3. 100 μl of single-round infectious reporter virus in Dulbecco's Modified Eagle Medium was then added to the plated cells and compound at an approximate multiplicity of infection (MOI) of 0.01, resulting in a final volume of 200 μl per well. • 4. Virally-infected cells were incubated at 37 degrees Celsius, in a CO2 incubator, and harvested 72 h after infection. • 5. Viral infection was monitored by measuring luciferase expression from viral DNA in the infected cells using a luciferase reporter gene assay kit, as described by the manufacturer (Roche Molecular Biochemicals, Indianapolis, Ind.). Infected cell supernatants were removed and 50 μl of lysis buffer was added per well. After 15 minutes, 50 μl of freshly-reconstituted luciferase assay reagent was added per well. Luciferase activity was then quantified by measuring luminescence using a Wallac microbeta scintillation counter. • 6. The percent inhibition for each compound was calculated by quantifying the level of luciferase expression in cells infected in the presence of each compound as a percentage of that observed for cells infected in the absence of compound and subtracting such a determined value from 100. • 7. An EC50 provides a method for comparing the antiviral potency of the compounds of this disclosure. The effective concentration for fifty percent inhibition (EC50) was calculated with the Microsoft Excel Xlfit curve fitting software. For each compound, curves were generated from percent inhibition calculated at 10 different concentrations by using a four parameter logistic model (model 205). Table 3 is the key for the data in Table 4. Results
(In general: In a reporter assay the amount or activity of a reporter protein is the signal.)

For orientation: EC50 means the concentration giving half of the maximal effect.

As to `O=C(C(=O)N1CCN(c2ccccc2C(F)(F)F)CC1)c1c[nH]c2c(-n3ccnn3)ncc(F)c12` [A-52], the EC50 was > 500 nM. As for `COc1cnc(-n2cnc(C)n2)c2[nH]cc(C(=O)C(=O)N3CCN(c4nc(SC)nn4-c4ccccc4)CC3)c12` [G-26b], the EC50 is < 500 nM. For `COc1cnc(-n2cnc(C)n2)c2[nH]cc(C(=O)C(=O)N3CCN(c4nccn4-c4ccccc4)CC3)c12` [A-54] the value was < 500 nM; for `COc1cnc(-n2cnc(C)n2)c2[nH]cc(C(=O)C(=O)N3CCN(C4=C(c5ccccc5)C(=O)c5ccccc54)CC3)c12` [D-7], < 500 nM; for `CNC(=O)c1ncc(OC)c2c(C(=O)C(=O)N3CCN(c4nnnn4-c4ccccc4)CC3)c[nH]c12` [B-65], < 500 nM. Turning to `O=C(C(=O)N1[C@@H]2CC[C@H]1CN(c1nnnn1-c1ccccc1)C2)c1c[nH]c2c(-n3ccnn3)ncc(F)c12` [A-71], the half-maximal effective concentration (EC50) is < 500 nM. For `O=C(C(=O)N1CCN(c2nnnn2-c2ccccc2)CC1)c1c[nH]c2c(-c3cc(C(=O)N4CCN(CCO)CC4)[nH]n3)ncc(F)c12` [F-8] the value was < 500 nM; for `COc1cnc(-n2ccnn2)c2[nH]cc(C(=O)C(=O)N3CCN(c4nnnn4-c4ccccc4)CC3)c12` [A-1], < 500 nM. For `CCOC(=O)c1ncc(F)c2c(C(=O)C(=O)N3CCN(c4nnnn4-c4ccccc4)CC3)c[nH]c12` [B-57] the value was < 500 nM; for `N#Cc1cccc(-n2nnnc2N2CCN(C(=O)C(=O)c3c[nH]c4c(-n5ccnn5)ncc(F)c34)CC2)c1` [E-11], > 500 nM; for `COCCN1CCN(C(=O)c2cc(-c3ncc(F)c4c(C(=O)C(=O)N5CCN(c6nnnn6-c6ccccc6)CC5)c[nH]c34)n[nH]2)CC1` [F-15], < 500 nM.

`CN1CCN(CCCNC(=O)c2cc(-c3ncc(F)c4c(C(=O)C(=O)N5CCN(c6nnnn6-c6ccccc6)CC5)c[nH]c34)n[nH]2)CC1` [B-39]: the EC50 is < 500 nM. In the case of `O=C(C(=O)N1CCN(c2nnnn2-c2ccccn2)CC1)c1c[nH]c2c(-n3ccnn3)ncc(F)c12` [E-1, 1-(4-fluoro-7-(1H-1,2,3-triazol-1-yl)-1H-pyrrolo[2,3-c]pyridinyl-3-yl)-2-(4-(1-(pyridin-2-yl)-1H-tetrazol-5-yl)piperazin-1-yl)ethane-1,2-dione] it was < 500 nM. For `Cc1nnc(N2CCN(C(=O)C(=O)c3c[nH]c4c(-n5ccnn5)ncc(F)c34)CC2)n1-c1ccccc1` [A-47] the value was < 500 nM; for `COc1cnc(-n2cnc(C)n2)c2[nH]cc(C(=O)C(=O)N3CCC(c4nccn4-c4ccccc4)CC3)c12` [G-18b], < 500 nM; for `CCc1ncc(-c2ncc(OC)c3c(C(=O)C(=O)N4CCN(c5nnnn5-c5ccccn5)CC4)c[nH]c23)s1` [B-91], < 500 nM. In the case of `O=C(C(=O)N1CCN(c2ncccc2C(F)(F)F)CC1)c1c[nH]c2c(-n3ccnn3)ncc(F)c12` [A-51] it was < 500 nM; in that of `COc1cnc(-n2cnc(C)n2)c2[nH]cc(C(=O)C(=O)N3CCN(c4cnnn4-c4ccccn4)CC3)c12` [G-22b], < 500 nM. Regarding `CN1CCCC1CCNC(=O)c1cc(-c2ncc(F)c3c(C(=O)C(=O)N4CCN(c5nnnn5-c5ccccc5)CC4)c[nH]c23)n[nH]1` (stereo not shown) [F-13], the half-maximal effective concentration (EC50) is < 500 nM. For `COc1cnc(-n2cnc(C)n2)c2[nH]cc(C(=O)C(=O)N3CCN(c4cn(CC#N)nc4-c4ccccc4)CC3)c12` [G-21], the EC50 was < 500 nM. In the case of `O=C(C(=O)N1CCC(N2CCC2c2ccccc2)CC1)c1c[nH]c2c(-n3ccnn3)ncc(F)c12` (stereo not shown) [A-24] it was > 500 nM. In the case of `O=C(C(=O)N1CCN(c2nc(-c3ccccc3)cs2)CC1)c1c[nH]c2c(-n3ccnn3)ncc(F)c12` [A-8] it was < 500 nM; in that of `N#Cc1ncc(F)c2c(C(=O)C(=O)N3CCN(c4nnnn4-c4ccccc4)CC3)c[nH]c12` [B-46], > 500 nM; in that of `COc1cnc(-c2ccc(N)nc2)c2[nH]cc(C(=O)C(=O)N3CCN(c4nnnn4-c4ccccn4)CC3)c12` [H-9], < 500 nM. For `O=C(C(=O)N1CCN(c2nnnn2-c2nccs2)CC1)c1c[nH]c2c(-n3ccnn3)ncc(F)c12` [E-4] the value was < 500 nM; for `O=C(NCCN1CCOCC1)c1cc(-c2ncc(F)c3c(C(=O)C(=O)N4CCN(c5nnnn5-c5ccccc5)CC4)c[nH]c23)n[nH]1` [B-42], < 500 nM. Take `COc1cnc(-n2cnc(C)n2)c2[nH]cc(C(=O)C(=O)N3CCN(C4=NCCN4c4ccccc4)CC3)c12` [G-12b]: the EC50 was < 500 nM.

`O=C(C(=O)N1CCN(c2nnnn2-c2cccnc2)CC1)c1c[nH]c2c(-n3ccnn3)ncc(F)c12` [E-3]: the EC50 is < 500 nM. In the case of `COc1cnc(-n2cnc(C)n2)c2[nH]cc(C(=O)C(=O)N3CCN(c4ncccc4C(=O)NCc4ccccc4)CC3)c12` [D-16] it was > 500 nM; in that of `CN(C)C(=O)C(=O)Nc1ncc(F)c2c(C(=O)C(=O)N3CCN(c4nnnn4-c4ccccc4)CC3)c[nH]c12` [B-20, N^1-(4-fluoro-3-(2-oxo-2-(4-(1-phenyl-1H-tetrazol-5-yl)piperazin-1-yl)acetyl)-1H-pyrrolo[2,3-c]pyridin-7-yl)-N^2,N^2-dimethyloxalamide], < 500 nM; in that of `COc1cnc(-n2cnc(C)n2)c2[nH]cc(C(=O)C(=O)N3CCN(c4cn[nH]c4-c4ccccn4)CC3)c12` [E-17, 1-(4-methoxy-7-(3-methyl-1H-1,2,4-triazol-1-yl)-1H-pyrrolo[2,3-c]pyridinyl-3-yl)-2-(4-(3-(pyridin-2-yl)-1H-pyrazol-4-yl)piperazin-1-yl)ethane-1,2-dione], < 500 nM.

For `COc1cnc(-n2cnc(C)n2)c2[nH]cc(C(=O)C(=O)N3CCN(c4nnnn4-c4ccccc4)[C@@H](C)C3)c12` [A-60], the EC50 was < 500 nM.

With `CN(C)c1nc(N2CCN(C(=O)C(=O)c3c[nH]c4c(-n5ccnn5)ncc(F)c34)CC2)nn1-c1ccccc1` [G-4c], the EC50 was > 500 nM. For `CCOC(=O)Cn1cc(N2CCN(C(=O)C(=O)c3c[nH]c4c(-n5ccnn5)ncc(F)c34)CC2)c(-c2ccccc2)n1` [G-20] the value was < 500 nM.

For `CN1CCC(N(C)C(=O)c2cc(-c3ncc(F)c4c(C(=O)C(=O)N5CCN(c6nnnn6-c6ccccc6)CC5)c[nH]c34)n[nH]2)C1` (stereo not shown) [F-2], the EC50 was < 500 nM. For `CCOC(=O)CCCCC(=O)c1cccnc1N1CCN(C(=O)C(=O)c2c[nH]c3c(-n4ccnn4)ncc(F)c23)CC1` [D-42] the value was > 500 nM; for `CN(C)c1cnc(C(=O)NCCO)c2[nH]cc(C(=O)C(=O)N3CCN(c4nnnn4-c4ccccc4)CC3)c12` [B-56], < 500 nM. In the case of `Cc1cccnc1N1CCN(C(=O)C(=O)c2c[nH]c3c(-n4ccnn4)ncc(F)c23)CC1` [D-6] it was < 500 nM; in that of `COc1cnc(-c2cnc(C)s2)c2[nH]cc(C(=O)C(=O)N3CCN(c4nnnn4-c4ccccn4)CC3)c12` [B-90], < 500 nM.

Regarding `O=C(C(=O)N1CCN([C@H]2CCCC[C@H]2c2ccccc2)CC1)c1c[nH]c2c(-n3ccnn3)ncc(F)c12` [A-19], the EC50 is < 500 nM.

Consider `CN(C)CCn1ccc(-c2ncc(F)c3c(C(=O)C(=O)N4CCN(c5nnnn5-c5ccccc5)CC4)c[nH]c23)n1` [B-30], for which the EC50 was < 500 nM. `O=C(C(=O)N1CCC(N2CCN=C2c2ccccc2)CC1)c1c[nH]c2c(-n3ccnn3)ncc(F)c12` [G-10a]: the EC50 was > 500 nM. For `CCOC(=O)CCC(=O)c1cccnc1N1CCN(C(=O)C(=O)c2c[nH]c3c(-n4ccnn4)ncc(F)c23)CC1` [D-40] the value was > 500 nM; for `O=C(C(=O)N1CCN(c2nnnn2-c2ncco2)CC1)c1c[nH]c2c(-n3ccnn3)ncc(F)c12` [E-6], < 500 nM. In the case of `COc1cnc(-n2cnc(C)n2)c2[nH]cc(C(=O)C(=O)N3CCN(c4nnnn4-c4ccccn4)CC3)c12` [E-2] it was < 500 nM; in that of `O=C(c1nccs1)c1cccnc1N1CCN(C(=O)C(=O)c2c[nH]c3cccc(F)c23)CC1` [A-67], > 500 nM; in that of `CCc1ncn(-c2ncc(OC)c3c(C(=O)C(=O)N4CCN(c5nnnn5-c5ccccc5)CC4)c[nH]c23)n1` [A-70], < 500 nM.

Regarding `O=C(C(=O)N1CCN(c2ccnnc2-c2ccccc2)CC1)c1c[nH]c2c(-n3ccnn3)ncc(F)c12` [G-15a], the EC50 is < 500 nM.

As for `O=C(NC1CCCCC1)c1cccnc1N1CCN(C(=O)C(=O)c2c[nH]c3c(-n4ccnn4)ncc(F)c23)CC1` [D-34], the EC50 was < 500 nM.
